These results are taken from US20100329971A1, “NOVEL HYDROXY RADICAL GENERATION METHOD, AND ANTI-VIRAL MATERIAL UTILIZING HYDROXYL RADICAL GENERATED BY THE METHOD” (MOCHIGASE CO., LTD., priority 2008, published 2010).

Marks after values point to notes of the source that are not given here.

Experiment [1] can be described thus: Amount of generated hydroxyl radicals using metal oxides and hydroxides, HPF reagent (Example 15). The note with it: left shaded for 1 hour; 100% = 0.1% titanium oxide irradiated with room light 30 minutes.
Experiment [2] in a line: Quantification of hydroxyl radical production by HPF fluorescence intensity (Examples 13 and 18). The conditions noted are these: HPF 5 μM, room temperature 15 minutes; for Amount of generated radicals: 0.1 M phosphoric acid buffer, fluorescence intensity.
A short description of experiment [3]: Amount of generated hydroxyl radicals under shaded condition or room light, HPF reagent (Example 14). The note with it: measured 1 hour after preparation.
A short description of experiment [4]: Duration of hydroxyl radical generation, HPF reagent (Example 16). The conditions noted are these: shaded, 100% = 0.1% titanium oxide irradiated with room light 30 minutes.
Experiment [5] in a line: Amount of generated hydroxyl radicals using combinations of calcium hydroxide, magnesium oxide and magnesium hydroxide (Example 17). The conditions noted are these: left shaded for 72 hours; total 1% by weight; only calcium hydroxide = 100%. Here is the method:
Specifically, each reagent was mixed as described below to prepare a specimen to be measured using a suspension of a metal oxide and/or a hydroxide in a manner similar to Example 15. HPF reagent (Daiichi Pure Chemicals Co., Ltd.): 0.1 μL 0.5 M phosphoric acid buffer (pH 7.0): 20 μL Pure water: 49.9 μL Each suspension: 30 μL Table 7 indicates the concentrations and amounts of metal oxide and/or hydroxide in each specimen to be measured. [table]

Experiment [6] concerns the target spike proteins (Severe acute respiratory syndrome coronavirus, UniProt P59594).
Where [7] appears, read: Shaded, 100% = 0.1% titanium oxide irradiated 30 minutes.

For the molecule `[Na+].[OH-]` [Sodium hydroxide (1%), sodium hydroxide], the “Amount of generated hydroxyl radicals (% of control)” value in experiment [1] was 3.29 % of control.

Consider `[Mg+2].[OH-].[OH-]` [Magnesium hydroxide (1%), magnesium hydroxide], for which the “Amount of generated radicals” value in experiment [2] was found to be 11907. In addition, the “Amount of generated hydroxyl radicals” value in experiment [3] (setting [7]) is reported as 28.33%. For the same molecule, the “Amount of generated hydroxyl radicals (% of control)” value in experiment [1] is on record as 26.17 % of control. Further, in experiment [4], the “Amount of generated hydroxyl radicals (% of control) After 1 hour” value (“Amount … (% of control) After 1 hour” below) is listed as 26.17 % of control and the “Amount of generated hydroxyl radicals (% of control) After 12 hours” value (from here on “Amount … (% of control) After 12 hours”) is reported as 62.18 % of control. In experiment [5], the “Amount of generated hydroxyl radicals % of activity in Ca(OH)2” value is 144.14 % of activity in Ca(OH)2.

Regarding `[K+].[OH-]` [Potassium hydroxide (1%), potassium hydroxide], the “Amount of generated hydroxyl radicals (% of control)” value in experiment [1] is listed as 2.88 % of control.

With `[Ca+2].[OH-].[OH-]` [Calcium hydroxide (1%), calcium hydroxide], the “Amount of generated radicals” value in experiment [2] was determined as 6236. Also, the “Amount of generated hydroxyl radicals (% of control)” value in experiment [1] was 14.27 % of control. In experiment [4], the “Amount … (% of control) After 1 hour” value was 14.27 % of control and the “Amount … (% of control) After 12 hours” value is 47.49 % of control. Moreover, in experiment [5], the “Amount of generated hydroxyl radicals % of activity in Ca(OH)2” value was 100.00 % of activity in Ca(OH)2.

On to `[O]=[Mg]` [Magnesium oxide (1%), magnesium oxide, reference compound], for which the “Amount of generated radicals” value in experiment [2] is listed as 3918. Moreover, the “Amount of generated hydroxyl radicals (% of control)” value in experiment [1] is given as 15.07 % of control. In experiment [4], the “Amount … (% of control) After 1 hour” value is 15.07 % of control and the “Amount … (% of control) After 12 hours” value was 34.15 % of control. Also, the “Amount of generated hydroxyl radicals % of activity in Ca(OH)2” value in experiment [5] is 77.84 % of activity in Ca(OH)2.

For the molecule `[Mg+2].[OH-].[OH-]` [specimen No. 7, magnesium hydroxide], the “amounts of generated radicals (rank order)” value in experiment [2] (comparison of specimens Nos. 7, 8 and 3) is “specimen No. 7>specimen No. 8>specimen No. 3”.

Turning to `O=C([O-])c1ccccc1O.[Na+]` [sodium salicylate], the “bands corresponding to spike proteins, electrophoresis without a reducing agent” value in experiment [6] is “recovery of bands corresponding to spike proteins was confirmed”.

In the case of `[O]=[Ti]=[O]` [0.1% titanium oxide, titanium oxide], the “Amount of generated hydroxyl radicals” value is 100^1) % in experiment [3] (Irradiated with room light for 30 minutes then shaded, this value assumed to be 100%) and 3.92% in experiment [3] (setting [7]).
